{
  "source": "patent US8815565B2",
  "about": "“Method for culturing mycoplasma contamination-free cells and method for removing mycoplasma contamination of cells” (Cellsafe Co., Ltd., priority 2010, dated 2014)",
  "test_system": "cells contaminated with mycoplasma",
  "test": "Mycoplasma removal potential when amphidinol derivative was used, by filter pore size",
  "format": "cell-based",
  "procedure": "A medium was removed from the cell culture (80 to 90% confluent) which was cultured in the T-75 culture flask in (1) of Example 3 and which was confirmed as being contaminated with mycoplasma. The obtained cells were washed twice with 10 ml of a phosphate buffer solution. 2 ml of trypsin-EDTA was added thereto, followed by incubating at a temperature of 37° C. for 10 minutes to detach cells. Then, DMEM (GIBCO BRL, Cat. No. 12800-058) was added thereto to obtain 10 ml of cell suspension, which was then transferred to a 15 ml conical tube. The cell suspension in the conical tube was centrifuged at a rate of 1,500 rpm for 5 minutes, and then the supernatant was removed therefrom. 10 ml of 5% FBS-containing DMEM (GIBCO BRL, Cat. No. 12800-058) was added to the conical tube to obtain a cell suspension. The obtained cell suspension was divided into two groups each having an amount of 5 ml. […] The cell suspensions of the group 1 and 2 were diluted with 5% FBS-including DMEM (GIBCO BRL, Cat. No. 12800-058) to adjust the cell concentration to about 2.5×10^5 cells/ml, respectively. 4 ml of each cell suspension of the group 1 and 2 (each having about 2.5×10^5 cells/ml of cells) was transferred to a 15 ml tube, and then […] of 5% FBS-containing DMEM (GIBCO BRL, Cat. No. 12800-058) was added thereto. […] 10 ml of each of the obtained mixtures was transferred to a T-75 culture flask, followed by culturing for 3 days in a CO2 incubator for 3 days (passage 1 sub-culturing).\nThe medium was removed from the cell culture (80 to 90% confluent) which was cultured in the T-75 culture flask for 3 days. The obtained cells were washed twice with 10 ml of a phosphate buffer solution. 2 ml of trypsin-EDTA was added thereto, followed by incubating at a temperature of 37° C. for 10 minutes to detach the cells. Then, DMEM (GIBCO BRL, Cat. No. 12800-058) was added thereto to obtain 10 ml of cell suspension, which was then transferred to a 15 ml conical tube. The cell suspension in the conical tube was centrifuged at a rate of 1,500 rpm for 5 minutes, and then the supernatant was removed therefrom. 10 ml of 10% FBS-containing DMEM (GIBCO BRL, Cat. No. 12800-058) was added to the conical tube to obtain a cell suspension. The obtained cell suspension was divided into two groups each having an amount of 5 ml. […] The cell suspensions of the group 1 and 2 were diluted with 10% FBS-including DMEM (GIBCO BRL, Cat. No. 12800-058) to adjust the cell concentration to about 2.5×10^5 cells/ml, respectively. 4 ml of each cell suspension of the group 1 and 2 (each having about 2.5×10^5 cells/ml of cells) was transferred to a 15 ml tube, and then 5.5 ml of 10% FBS-containing DMEM (GIBCO BRL, Cat. No. 12800-058) was added thereto. […] 10 ml of each of the obtained mixtures was transferred to a T-75 culture flask, followed by culturing […] (passage 2 sub-culturing). The sub-culturing was performed twice more, and thus, passage 4 sub-culturing steps in total were performed.\nMycoplasma contamination was measured regarding the respective cells of the additional passages 1, 3, 6, 10, 12, 15, and 33 after the initial passage 4 treatments. Whether mycoplasma was removed was measured with a mycoplasma diagnosis kit (Promokine, Germany; Cellsafe Co., Ltd., Korea) according to the enclosed protocol. The resulting PCR products were electrophoresed on a 1% agarose gel to measure the mycoplasma contamination.\nSub-culturing was performed in the same manner as in (1), except that 2 μg/ml of the compound of Formula 3 was used as a reagent for removing mycoplasma , and the filters (Millipore) having pore sizes of 11, 20, 30, 60, 80, 90, and 100 μm and the filters (Falcon) having pore sizes of 40, 50, and 70 μm were used, and then, the mycoplasma contamination was measured.",
  "data": [
    {"smiles": "C=C/C=C/CC/C=C/C=C/C=C/CC/C=C/C(O)C(O)C1OC(C(O)C(O)C(=C)CCC(O)C2CC(O)C(O)C(C(O)C(O)/C=C(\\C)CCC(O)CC(O)C(O)C(C)CC(O)C(O)CCCCCC(O)CCCC(O)/C=C/CC(O)/C=C/CC(O)CO)O2)CC(O)C1O", "note": "(centres unmarked) [AM3, amphidinol 3]", "values": [
      {"measurement": "mycoplasma contamination", "setting": "2 μg/ml, Pore size 11 μm, Passage 1 after treatment", "result": "−"},
      {"measurement": "mycoplasma contamination", "setting": "2 μg/ml, Pore size 11 μm, Passage 3 after treatment", "result": "−"},
      {"measurement": "mycoplasma contamination", "setting": "2 μg/ml, Pore size 11 μm, Passage 6 after treatment", "result": "−"},
      {"measurement": "mycoplasma contamination", "setting": "2 μg/ml, Pore size 11 μm, Passage 10 after treatment", "result": "−"},
      {"measurement": "mycoplasma contamination", "setting": "2 μg/ml, Pore size 11 μm, Passage 12 after treatment", "result": "−"},
      {"measurement": "mycoplasma contamination", "setting": "2 μg/ml, Pore size 11 μm, Passage 15 after treatment", "result": "−"},
      {"measurement": "mycoplasma contamination", "setting": "2 μg/ml, Pore size 11 μm, Passage 33 after treatment", "result": "−"},
      {"measurement": "mycoplasma contamination", "setting": "2 μg/ml, Pore size 20 μm, Passage 1 after treatment", "result": "−"},
      {"measurement": "mycoplasma contamination", "setting": "2 μg/ml, Pore size 20 μm, Passage 3 after treatment", "result": "−"},
      {"measurement": "mycoplasma contamination", "setting": "2 μg/ml, Pore size 20 μm, Passage 6 after treatment", "result": "−"},
      {"measurement": "mycoplasma contamination", "setting": "2 μg/ml, Pore size 20 μm, Passage 10 after treatment", "result": "−"},
      {"measurement": "mycoplasma contamination", "setting": "2 μg/ml, Pore size 20 μm, Passage 12 after treatment", "result": "−"},
      {"measurement": "mycoplasma contamination", "setting": "2 μg/ml, Pore size 20 μm, Passage 15 after treatment", "result": "−"},
      {"measurement": "mycoplasma contamination", "setting": "2 μg/ml, Pore size 20 μm, Passage 33 after treatment", "result": "−"},
      {"measurement": "mycoplasma contamination", "setting": "2 μg/ml, Pore size 30 μm, Passage 1 after treatment", "result": "−"},
      {"measurement": "mycoplasma contamination", "setting": "2 μg/ml, Pore size 30 μm, Passage 3 after treatment", "result": "−"},
      {"measurement": "mycoplasma contamination", "setting": "2 μg/ml, Pore size 30 μm, Passage 6 after treatment", "result": "−"},
      {"measurement": "mycoplasma contamination", "setting": "2 μg/ml, Pore size 30 μm, Passage 10 after treatment", "result": "−"},
      {"measurement": "mycoplasma contamination", "setting": "2 μg/ml, Pore size 30 μm, Passage 12 after treatment", "result": "−"},
      {"measurement": "mycoplasma contamination", "setting": "2 μg/ml, Pore size 30 μm, Passage 15 after treatment", "result": "−"},
      {"measurement": "mycoplasma contamination", "setting": "2 μg/ml, Pore size 30 μm, Passage 33 after treatment", "result": "−"},
      {"measurement": "mycoplasma contamination", "setting": "2 μg/ml, Pore size 40 μm, Passage 1 after treatment", "result": "−"},
      {"measurement": "mycoplasma contamination", "setting": "2 μg/ml, Pore size 40 μm, Passage 3 after treatment", "result": "−"},
      {"measurement": "mycoplasma contamination", "setting": "2 μg/ml, Pore size 40 μm, Passage 6 after treatment", "result": "−"},
      {"measurement": "mycoplasma contamination", "setting": "2 μg/ml, Pore size 40 μm, Passage 10 after treatment", "result": "−"},
      {"measurement": "mycoplasma contamination", "setting": "2 μg/ml, Pore size 40 μm, Passage 12 after treatment", "result": "−"},
      {"measurement": "mycoplasma contamination", "setting": "2 μg/ml, Pore size 40 μm, Passage 15 after treatment", "result": "−"},
      {"measurement": "mycoplasma contamination", "setting": "2 μg/ml, Pore size 40 μm, Passage 33 after treatment", "result": "−"},
      {"measurement": "mycoplasma contamination", "setting": "2 μg/ml, Pore size 50 μm, Passage 1 after treatment", "result": "−"},
      {"measurement": "mycoplasma contamination", "setting": "2 μg/ml, Pore size 50 μm, Passage 3 after treatment", "result": "−"},
      {"measurement": "mycoplasma contamination", "setting": "2 μg/ml, Pore size 50 μm, Passage 6 after treatment", "result": "−"},
      {"measurement": "mycoplasma contamination", "setting": "2 μg/ml, Pore size 50 μm, Passage 10 after treatment", "result": "−"},
      {"measurement": "mycoplasma contamination", "setting": "2 μg/ml, Pore size 50 μm, Passage 12 after treatment", "result": "−"},
      {"measurement": "mycoplasma contamination", "setting": "2 μg/ml, Pore size 50 μm, Passage 15 after treatment", "result": "−"},
      {"measurement": "mycoplasma contamination", "setting": "2 μg/ml, Pore size 50 μm, Passage 33 after treatment", "result": "−"},
      {"measurement": "mycoplasma contamination", "setting": "2 μg/ml, Pore size 60 μm, Passage 1 after treatment", "result": "−"},
      {"measurement": "mycoplasma contamination", "setting": "2 μg/ml, Pore size 60 μm, Passage 3 after treatment", "result": "−"},
      {"measurement": "mycoplasma contamination", "setting": "2 μg/ml, Pore size 60 μm, Passage 6 after treatment", "result": "−"},
      {"measurement": "mycoplasma contamination", "setting": "2 μg/ml, Pore size 60 μm, Passage 10 after treatment", "result": "−"},
      {"measurement": "mycoplasma contamination", "setting": "2 μg/ml, Pore size 60 μm, Passage 12 after treatment", "result": "−"},
      {"measurement": "mycoplasma contamination", "setting": "2 μg/ml, Pore size 60 μm, Passage 15 after treatment", "result": "−"},
      {"measurement": "mycoplasma contamination", "setting": "2 μg/ml, Pore size 60 μm, Passage 33 after treatment", "result": "−"},
      {"measurement": "mycoplasma contamination", "setting": "2 μg/ml, Pore size 70 μm, Passage 1 after treatment", "result": "−"},
      {"measurement": "mycoplasma contamination", "setting": "2 μg/ml, Pore size 70 μm, Passage 3 after treatment", "result": "−"},
      {"measurement": "mycoplasma contamination", "setting": "2 μg/ml, Pore size 70 μm, Passage 6 after treatment", "result": "−"},
      {"measurement": "mycoplasma contamination", "setting": "2 μg/ml, Pore size 70 μm, Passage 10 after treatment", "result": "−"},
      {"measurement": "mycoplasma contamination", "setting": "2 μg/ml, Pore size 70 μm, Passage 12 after treatment", "result": "−"},
      {"measurement": "mycoplasma contamination", "setting": "2 μg/ml, Pore size 70 μm, Passage 15 after treatment", "result": "−"},
      {"measurement": "mycoplasma contamination", "setting": "2 μg/ml, Pore size 70 μm, Passage 33 after treatment", "result": "−"},
      {"measurement": "mycoplasma contamination", "setting": "2 μg/ml, Pore size 80 μm, Passage 1 after treatment", "result": "−"},
      {"measurement": "mycoplasma contamination", "setting": "2 μg/ml, Pore size 80 μm, Passage 3 after treatment", "result": "−"},
      {"measurement": "mycoplasma contamination", "setting": "2 μg/ml, Pore size 80 μm, Passage 6 after treatment", "result": "−"},
      {"measurement": "mycoplasma contamination", "setting": "2 μg/ml, Pore size 80 μm, Passage 10 after treatment", "result": "−"},
      {"measurement": "mycoplasma contamination", "setting": "2 μg/ml, Pore size 80 μm, Passage 12 after treatment", "result": "−"},
      {"measurement": "mycoplasma contamination", "setting": "2 μg/ml, Pore size 80 μm, Passage 15 after treatment", "result": "−"},
      {"measurement": "mycoplasma contamination", "setting": "2 μg/ml, Pore size 80 μm, Passage 33 after treatment", "result": "−"},
      {"measurement": "mycoplasma contamination", "setting": "2 μg/ml, Pore size 90 μm, Passage 1 after treatment", "result": "−"},
      {"measurement": "mycoplasma contamination", "setting": "2 μg/ml, Pore size 90 μm, Passage 3 after treatment", "result": "−"},
      {"measurement": "mycoplasma contamination", "setting": "2 μg/ml, Pore size 90 μm, Passage 6 after treatment", "result": "−"},
      {"measurement": "mycoplasma contamination", "setting": "2 μg/ml, Pore size 90 μm, Passage 10 after treatment", "result": "−"},
      {"measurement": "mycoplasma contamination", "setting": "2 μg/ml, Pore size 90 μm, Passage 12 after treatment", "result": "−"},
      {"measurement": "mycoplasma contamination", "setting": "2 μg/ml, Pore size 90 μm, Passage 15 after treatment", "result": "−"},
      {"measurement": "mycoplasma contamination", "setting": "2 μg/ml, Pore size 90 μm, Passage 33 after treatment", "result": "−"},
      {"measurement": "mycoplasma contamination", "setting": "2 μg/ml, Pore size 100 μm, Passage 1 after treatment", "result": "−"},
      {"measurement": "mycoplasma contamination", "setting": "2 μg/ml, Pore size 100 μm, Passage 3 after treatment", "result": "−"},
      {"measurement": "mycoplasma contamination", "setting": "2 μg/ml, Pore size 100 μm, Passage 6 after treatment", "result": "−"},
      {"measurement": "mycoplasma contamination", "setting": "2 μg/ml, Pore size 100 μm, Passage 10 after treatment", "result": "−"},
      {"measurement": "mycoplasma contamination", "setting": "2 μg/ml, Pore size 100 μm, Passage 12 after treatment", "result": "−"},
      {"measurement": "mycoplasma contamination", "setting": "2 μg/ml, Pore size 100 μm, Passage 15 after treatment", "result": "−"},
      {"measurement": "mycoplasma contamination", "setting": "2 μg/ml, Pore size 100 μm, Passage 33 after treatment", "result": "−"},
      {"measurement": "mycoplasma contamination", "setting": "filter having a pore size of 10 to 100 μM", "result": "completely removed"}
    ]}
  ]
}
